The test system of the experiment is MDA-MB-231 multicell spheroids, viability (%T/C). Nature of the experiment: Anticancer human tumor MDA-MB-231 cell line growth inhibition [IpAb].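 As to all read-outs here: viability read after seven days of drug exposure.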 The following applies: for viability, T/C: stronger effect = lower value. From the text:
Combinatorial screen of targeted agents with ipatasertib and abemaciclib in multi-cell type tumor spheroids
A high-throughput screen of multi-cell type tumor spheroids was designed to identify active combinations of targeted small molecules and ipatasertib or abemaciclib. Complex spheroids include a stromal component modeled by human endothelial cells (HUVEC) and fibroblasts modeled by human mesenchymal stem cells (MSCs). The concentration ranges selected for each drug and investigational agent were based upon clinically achievable concentrations if the clinical Cmax of the agent was known.
Compounds. The drugs and investigational agents: ipatasertib (NSC767898), abemaciclib(NSC768073), selumetinib (NSC741078), trametinib (758246), adavosertib (NSC754352), everolimus (NSC733504), sapanisertib (NSC764658), vemurafenib (NSC761431), venetoclax (NSC766270), copanlisib (NSC809693), apelisib (NSC765974), palbociblib (NSC758247), vemurafenib (NSC761431), dabrafenib (NSC764134), ravoxertinib (NSC781343), BMS-387032 (NSC767048), sotorasib (NSC818433), talazoparib (NSC767125) and afursertib (NSC778305), were obtained from the National Cancer Institute (NCI) Developmental Therapeutics Program Chemical Repository. The FDA-approved anticancer drug set is available from the NCI Developmental Therapeutics Program. […] The stock solutions were prepared in dimethyl sulfoxide (DMSO, Sigma-Aldrich, St. Louis, MO, cat. D2650) at 800-fold the tested concentration and stored at -70 degrees C prior to their use. All drugs and investigational agents were tested over a range starting from a high concentration at or near the clinical Cmax and decreasing in half-log increments. If the clinical Cmax for an agent had not been determined, the highest concentration tested was 10 microM.
NCI60 Cell Culture. NCI60 cell lines were obtained from the NCI Developmental Therapeutics Program Tumor Repository. For each lot of cells, the Repository performed Applied Biosystems AmpFLSTR Identifiler testing with PCR amplification to confirm consistency with the published Identifier STR profile for each cell line. Cells were kept in continuous culture for no more than 20 passages. The optimal seeding densities for each of the cell lines at each time point assessed were determined prior to performing the concentration response studies. Briefly, the NCI60 human tumor lines were grown as monolayers in RPMI 1640 medium supplemented with 10% FBS and 2 mmol/L L-glutamine.
An additional 9 lines were from the NCI60 cell line panel including MDA-MB-231 breast carcinoma, MDA-MB-468 breast carcinoma, MCF7 breast carcinoma, Hs578T breast carcinoma, MALME-3M melanoma, SK-MEL-2 melanoma, SK-OV-3 ovarian carcinoma, DU-145 prostate carcinoma, PC-3 prostate carcinoma, all cell lines along with major genetic alterations are listed on Table 2. Pooled donor human umbilical vein endothelial cells (HUVEC, Lonza, cat. CC-2519) and human mesenchymal stem cells (hMSC, Lonza, cat. PT-2501) were purchased from Lonza (Walkersville, MD).
PDMR cell lines were grown in complete medium (DC medium): Dulbecco's modified Eagle's medium (DMEM)/F12 supplemented with 5% fetal bovine serum (FBS), 2 mM L-glutamine, 100 U/mL penicillin and 100 µg/ml streptomycin, 0.4 µg/ml hydrocortisone, 10 ng/ml epidermal growth factor (EGF) recombinant human protein, 24 µg/mL adenine, and 0.1 mg/mL primocin. During culture from frozen stock vials, PDMR cells were cultured in the same medium containing 10 µM Y-27632 (see Table 3). The PDCs were cultured in complete DMEM/F12 media without 10 microM Y-27632 dihydrochloride for at least two passages prior to the screen. The pooled donor HUVEC and hMSC were cultured in endothelial cell growth medium 2 (PromoCell, Heidelberg, Germany, cat. C-22011) and mesenchymal stem cell growth medium 2 (PromoCell, cat. C-28009), respectively. For all experiments, HUVEC and hMSC were used at passages </=5.
[…]

[1] abbreviates: curve of first compound, second compound 0.01 µM.
The mark [2] stands for this setting: curve of first compound, second compound 0.0316 µM.
The mark [3] stands for this setting: curve of first compound, second compound 0.1 µM.
Setting [4] is: curve of first compound, second compound 0.316 µM.
The mark [5] stands for this setting: curve of first compound, second compound 1 µM.

SMILES strings stand for the structures. “And” between values parts separate entries of the source, which are not always exact repeats. Equal entries are not always repeated.

Experimental findings from PubChem BioAssay AID2060328 (Molecular Pharmacology Branch, DTP, NCI, 2025) are described below.

Regarding `Cn1ncc(Cl)c1-c1cc(C(=O)NC(CN)Cc2cccc(F)c2)sc1Cl` (centres undefined), the viability, T/C – broadly, the result in the treated group divided by that in the control group, in per cent – runs as follows: (compound 0.0316 µM) 100% and 101%; (compound 0.1 µM) 89.6% and 87.9%; (compound 0.316 µM) 75.6%; (compound 1 µM) 57.4% and 57.5%; (compound 3.16 µM) 37.4% and 30%; (compound 10 µM) 0.23% and 0.17%. Under “curve of compound”, the IC50 (in general, the midpoint of a concentration-inhibition curve) is 1520 nM and 1330 nM.
As to `CCN1CCN(Cc2ccc(Nc3ncc(F)c(-c4cc(F)c5nc(C)n(C(C)C)c5c4)n3)nc2)CC1`, the viability, T/C runs as follows: (compound 0.01 µM) 88.6% [middle of 13 runs]; (compound 0.0316 µM) 74.8% [middle of 13 runs]; (compound 0.1 µM) 58.9% [middle of 13 runs]; (compound 0.316 µM) 46.5% [middle of 13 runs]; (compound 1 µM) 48.8% [middle of 13 runs].
Turning to `C=CCn1c(=O)c2cnc(Nc3ccc(N4CCN(C)CC4)cc3)nc2n1-c1cccc(C(C)(C)O)n1` + CCN1CCN(Cc2ccc(Nc3ncc(F)c(-c4cc(F)c5nc(C)n(C(C)C)c5c4)n3)nc2)CC1, the IC50 was 239 nM under setting [1]; 208 nM under setting [2]; 177 nM under setting [3]; 33.4 nM under setting [4]; 325 nM under setting [5]. The viability, T/C reads like this: (second compound 0.01 µM, first compound 0.0316 µM) 88.8%; (second compound 0.01 µM, first compound 0.1 µM) 85%; (second compound 0.01 µM, first compound 0.316 µM) 38.6%; (second compound 0.01 µM, first compound 1 µM) 20.3%; (second compound 0.01 µM, first compound 3.16 µM) 15.4%; (second compound 0.01 µM, first compound 10 µM) 20%. Moreover, the viability, T/C (second compound 0.0316 µM, first compound 0.0316 µM) was 80.1%; the viability, T/C (second compound 0.0316 µM, first compound 0.1 µM) was 69.3%; the viability, T/C (second compound 0.0316 µM, first compound 0.316 µM) is 38.9%; the viability, T/C (second compound 0.0316 µM, first compound 1 µM) is 23%; the viability, T/C (second compound 0.0316 µM, first compound 3.16 µM) is 17.9%; the viability, T/C (second compound 0.0316 µM, first compound 10 µM) is 20%. Also, the viability, T/C runs as follows: (second compound 0.1 µM, first compound 0.0316 µM) 59.8%; (second compound 0.1 µM, first compound 0.1 µM) 56.8%; (second compound 0.1 µM, first compound 0.316 µM) 43.1%; (second compound 0.1 µM, first compound 1 µM) 26.1%; (second compound 0.1 µM, first compound 3.16 µM) 19.9%; (second compound 0.1 µM, first compound 10 µM) 21.2%. Further, the viability, T/C reads like this: (second compound 0.316 µM, first compound 0.0316 µM) 47.4%; (second compound 0.316 µM, first compound 0.1 µM) 48.7%; (second compound 0.316 µM, first compound 0.316 µM) 42.5%; (second compound 0.316 µM, first compound 1 µM) 32.9%; (second compound 0.316 µM, first compound 3.16 µM) 24.8%; (second compound 0.316 µM, first compound 10 µM) 26.4%. Further, the viability, T/C was 51.8% (second compound 1 µM, first compound 0.0316 µM); 51.7% (second compound 1 µM, first compound 0.1 µM); 50.5% (second compound 1 µM, first compound 0.316 µM); 48.5% (second compound 1 µM, first compound 1 µM); 41% (second compound 1 µM, first compound 3.16 µM); 36.5% (second compound 1 µM, first compound 10 µM).
For the compound `Cn1nccc1Nc1nccc(-c2ccn(C(CO)c3ccc(Cl)c(F)c3)c(=O)c2)n1` (centres undefined), the viability, T/C was 71% and 65.7% (compound 0.0316 µM); 59% and 53.1% (compound 0.1 µM); 49.6% and 47.1% (compound 0.316 µM); 48% and 38% (compound 1 µM); 30.3% and 33.5% (compound 3.16 µM); 23.5% and 21.3% (compound 10 µM). For the same compound, the IC50 (curve of compound) is 406 nM and 209 nM.
For `CC(=O)c1c(C)c2cnc(Nc3ccc(N4CCNCC4)cn3)nc2n(C2CCCC2)c1=O` + CCN1CCN(Cc2ccc(Nc3ncc(F)c(-c4cc(F)c5nc(C)n(C(C)C)c5c4)n3)nc2)CC1, the IC50 was 59.4 nM under setting [1]; 44.3 nM under setting [2]; 18.1 nM under setting [3]; 1.19 nM under setting [4]; more than 300 nM under setting [5]. Moreover, the viability, T/C was 87.9% (second compound 0.01 µM, first compound 0.000949 µM); 82.1% (second compound 0.01 µM, first compound 0.003 µM); 74.1% (second compound 0.01 µM, first compound 0.00949 µM); 55.2% (second compound 0.01 µM, first compound 0.03 µM); 46.3% (second compound 0.01 µM, first compound 0.0949 µM); 43.1% (second compound 0.01 µM, first compound 0.3 µM). The viability, T/C runs as follows: (second compound 0.0316 µM, first compound 0.000949 µM) 71.8%; (second compound 0.0316 µM, first compound 0.003 µM) 71.5%; (second compound 0.0316 µM, first compound 0.00949 µM) 66.8%; (second compound 0.0316 µM, first compound 0.03 µM) 52.8%; (second compound 0.0316 µM, first compound 0.0949 µM) 44.4%; (second compound 0.0316 µM, first compound 0.3 µM) 40.4%. The viability, T/C reads like this: (second compound 0.1 µM, first compound 0.000949 µM) 60%; (second compound 0.1 µM, first compound 0.003 µM) 59.2%; (second compound 0.1 µM, first compound 0.00949 µM) 54%; (second compound 0.1 µM, first compound 0.03 µM) 47.1%; (second compound 0.1 µM, first compound 0.0949 µM) 41%; (second compound 0.1 µM, first compound 0.3 µM) 41.8%. Besides, the viability, T/C was 49.2% (second compound 0.316 µM, first compound 0.000949 µM); 50.9% (second compound 0.316 µM, first compound 0.003 µM); 46.2% (second compound 0.316 µM, first compound 0.00949 µM); 44.7% (second compound 0.316 µM, first compound 0.03 µM); 44% (second compound 0.316 µM, first compound 0.0949 µM); 42% (second compound 0.316 µM, first compound 0.3 µM). For the same compound, the viability, T/C (second compound 1 µM, first compound 0.000949 µM) was 55.4%; the viability, T/C (second compound 1 µM, first compound 0.003 µM) is 58.5%; the viability, T/C (second compound 1 µM, first compound 0.00949 µM) was 53.8%; the viability, T/C (second compound 1 µM, first compound 0.03 µM) is 53.4%; the viability, T/C (second compound 1 µM, first compound 0.0949 µM) is 52.8%; the viability, T/C (second compound 1 µM, first compound 0.3 µM) was 48.9%.
